ChEMBL document CHEMBL1138669, “Dipeptidyl peptidase IV inhibitors for the treatment of diabetes” (J Med Chem, 2004)

Test: Half life was determined
Assay type: ADME
Conditions: rat

Compound `N#Cc1ccc(NCCNCC(=O)N2CCC[C@H]2C#N)nc1` has a half-life of 50 min.
